Source: US20060088545A1, “Use of inhibitors of the protease of the human immunodeficiency virus (hiv) to block cell migration and/or invasion, tissue infiltration and oedema for the therary of diseases associated therewith” (priority 2001, published 2006)
Entries after “also recorded” stand apart in the source; their conditions may differ.

Key:
[1] = tested on: hepato-carcinoma cells (SK-Hep-1); assay: Cell growth assay of SK-Hep-1 cells; format: cell-based, human; conditions: 10 μM; 4 days
Procedure: FIG. 16. […] Shown is the result of a representative cell growth assay performed on the hepato-carcinoma cells. Human hepato-carcinoma cells (SK-Hep-1; from ATCC) were plated in triplicate (8×10^4 cells/well) in 12-well plates. […] After 4 days of culture, the cells were counted by trypan blue dye staining, as previously described (Ensoli et al., 1990; Ensoli et al., 1994b): For all the in vitro studies HIV-PI as endotoxin-free pure powder (a kind gift of Merck Sharp & Dohme and Roche) were resuspended in distilled water. Assays were repeated at least three times.

KS cells = assay: KS cell migration, Boyden chamber, bFGF chemo-attractant; format: cell-based, human; conditions: 0.01 μM-1 μM, 5 days
Procedure: In contrast, both drugs inhibited KS cell capability of invading a matrigel substrate in a dose-dependent manner. In particular, both HIV-PI inhibit the invasion of KS cells by 30-40% (p<0.05) (Table 4 and FIG. 13).
Migration and invasion assays were carried out essentially as detailed in the key to FIGS. 2 and 3.

IL-6 = IL-6 production by KS cells (ELISA); format: cell-based, human; conditions: 0.1, 1 and 10 μM, 5 days + 24 hours
Procedure: (§1) After 24 hours of incubation, the supernatants of the cultures were tested by ELISA (R & D Systems, Minneapolis, Minn., USA) to determine the quantity of IL-6 present in the medium. The quantity of IL-6 is expressed in pg/ml of supernatant. The same tests were carried out for bFGF, VEGF, IL-1α and IL-1β by means of commercial ELISA kits.
(§2) KS cells secrete cytokines with an inflammatory, oedemigenic, angiogenic and proliferative activity with autocrine and paracrine effects (Ensoli and Stürzl, 1998). These factors mediate all the processes required for KS-like lesions formation (angiogenesis, cellular proliferation and invasion, inflammatory Infiltration, oedema) and vascular permeability and oedema induced by KS cells in nude mice. […] The quantity of bFGF, VEGF, IL-1 and IL-6 was dosed with immuno-enzymatic trials in the supernatants of the KS cells after 24 hours of culture in the absence of serum and in the continuous presence of the two HIV-PI (ELISA). […] Furthermore IL-6 plays a key role in the multicentric Cstleman's diseases and in the growth of lymphomas (Tosato et al., 1993; Peterson and Frizzera, 1993; Asou et al., 1998; Ramsay et al., 1994), another type of tumour whose incidence is reduced in patients treated with HIV-PI (International Collaboration on HIV and Cancer 2000).

VEGF = VEGF production by KS cells (ELISA); format: cell-based, human; conditions: 0.1, 1 and 10 μM; 5 days + 24 hours
Procedure: as §1, §2

EA-hy 926 cells = assay: Angiogenic tumours induced by EA-hy 926 cells in nude mice (drug pre-treatment); format: in vivo; conditions: EA-hy 926 cells 3×10^6; for No. of mice with macroscopic lesions/No. of inoculated mice / mice with macroscopic lesions (%): treatment since 2 days prior to inoculation
Procedure: To determine whether HIV-PI could inhibit the growth of a malignant angiogenic tumour, nude mice were inoculated with the EA-hy 926 cell line. This cell line is derived from a hybrid between H-UVEC and human lung adeno-carcinoma cells (Edgell et al, PNAS 1983), retains most of the endothelial cell markers and is used as an angiogenic tumour model (Albini et al, Nat Med 1996; Albini et al, PNAS 1995; Cai et al, Lab Invest 1999). HIV-PI were administered to nude mice starting 2 days prior to tumour cell inoculation.
Mice were sacrificed 5-6 days after cell injection and lesions present at the injection site measured by caliper, and analyzed microscopically after H&E staining or by immuno-histochemical analysis. […] Tumour-associated angiogenesis was evaluated after immuno-histochemical staining for FVIII-RA or CD31 markers, as described in legend to Table 1. Shown are external lesion size (cm^2±SD) and the percentage of stained tumour tissue (±SD) as quantified by the KS300 image analysis software (Zeiss) (see methods).

MMP-2 = assay: Gelatin zymography of supernatants from TPA-stimulated HUVEC; format: cell-based, human; conditions: TPA 50 nM; 8 hours; 10 μM
Procedure: HUVEC were cultivated for 24 hours in RPMI 1640 with the addition of 10% FBS. […] Aliquots of cell supernatants were then assayed for MMP-2 activity by gel zymography as described above. HT1080 is a tumour cell line secreting large amount of MMP-2 that was used as a control. […] The amount of supernatant analysed was normalised to the total cell number.

[2] = tested on: KS-like lesions induced by KS cells (KS12); assay: Regression of KS-like lesions induced by KS cells in nude mice, no drug pre-treatment; format: in vivo; conditions: treatment started on the day of KS cell inoculation, 5 days
Procedure: Indinavir and saquinavir can also promote KS regression in the absence of any drug pre-treatment. […] Treatment was then continued for 5 days, until sacrifice. The mean size (cm^2) of the lesions present at the injection site evaluated by daily caliper measurement and calculated as the product of the two major lesion diameters is shown.
To determine whether HIV-PI can also promote KS regression in the absence of any drug pre-treatment, experiments were also performed by treating mice with HIV-PI at the time of KS cell inoculation.

[3] = tested on: vascular permeability and oedema induced by KS cells; assay: Vascular permeability and oedema induced by KS cells in nude mice (Evans blue); format: in vivo
Procedure: As a control, each animal was inoculated controlaterally with the same volume of diluting buffer and Matrigel. After 18 hours the animals were sacrificed and the quantity of staining decanted in the inoculation site of the KS cells was measured at the level of the two largest perpendicular diameters by means of a gauge. The quantity of staining decanted was also assessed after taking skin from the inoculation site and quantified with the spectrophotometer after extraction with formamide for 24 hours at 56° C. […] The quantity of staining decanted was calculated after subtraction of the optical density measured on the control site.
After 12 hours the animals were sacrificed, the stained area present on the site of inoculation of the KS cells was measured with a caliper and the extravasated dye was extracted from tissues with formamide and measured by spectrophotometry (Nakamura, Science 1992).

casein-degrading MMPs = assay: Casein zymography of supernatants from HUVEC treated with bFGF or TPA; format: cell-based, human; conditions: 10 μM; 8 or 24 hours
Procedure: FIG. 11. Saquinavir blocks the production of casein-degrading MMPs by endothelial cells. […] Aliquots of cell supernatants normalised to total cell number were then analysed for MMP activity by gel zymography as described above in gels containing casein (2 mg/ml) instead of gelatin.). Panel A: casein zymography performed with cell supernatants harvested after 8 hours of culture in the presence of TPA or bFGF; Panel B: casein zymography performed with cell supernatants harvested after 24 hours of culture in the presence of TPA or bFGF. Casein is specifically cleaved by stromelysins (MMP-3, MMP-10, MMP-11) and matrilysin (MMP-7) (Whittaker and Ayscough, 2001) This led to the appearance of destained areas due to caseinolytic activity present in cell supernatants.

Row | SMILES | proliferation [1] | migration of KS cells (KS cells) | production of IL-6 by KS cells (IL-6) | production of IL-6 by KS cells (IL-6; listed as indinavir) | production of VEGF by KS cells (VEGF) | External lesion size (cm^2 ± SD) (EA-hy 926 cells) [cm^2] | Tissue staining (area % ± SD) CD31 (EA-hy 926 cells) [%] | Tissue staining (area % ± SD) FVIII-RA (EA-hy 926 cells) [%] | No. of mice with macroscopic lesions/No. of inoculated mice (EA-hy 926 cells) | mice with macroscopic lesions (%) (EA-hy 926 cells) | mice with macroscopic lesions (%) (EA-hy 926 cells; listed as indinavir) | total amount of MMP-2 released by cells in the presence of TPA (MMP-2) | regression of KS-like lesions (lesion size) [2] | reduction of the stained area (measurement with a gauge/caliper) [3] [%] | reduction of the amount of extravasated dye (spectrophotometer) ([3]; formamide extraction) [%] | release of casein-degradation activity induced by bFGF or TPA (casein-degrading MMPs)
1 | CC(C)(C)NC(=O)[C@@H]1CN(Cc2cccnc2)CCN1C[C@@H](O)C[C@@H](Cc1ccccc1)C(=O)N[C@H]1c2ccccc2C[C@H]1O [Indinavir, indinavir] | do not interfere | neither indinavir nor saquinavir had any effect | inhibited | reduced | reduced | 0.63 ± 0.17 | 0.70 ± 0.6 | 1.01 ± 1.5 | 4/12 | 33.3 | 33 | inhibited | promote the regression |  |  | 
2 | CC(C)(C)NC(=O)[C@@H]1C[C@@H]2CCCC[C@@H]2CN1C[C@@H](O)[C@H](Cc1ccccc1)NC(=O)[C@H](CC(N)=O)NC(=O)c1ccc2ccccc2n1 [Saquinavir, saquinavir] | do not interfere | neither indinavir nor saquinavir had any effect | reduced; also recorded: inhibited |  | reduced | 0.55 ± 0.14 | 0.08 ± 0.1 | 0.71 ± 0.8 | 3/12 | 25 |  |  | promote the regression | 47.5 | 44.5 | inhibited
